The nature of the data set: physchem. The following applies: thermodynamic from solid. As for the experimental part: To increase the solubility of the low-solubility active ingredients, 40 ml of a 15% polymer solution (in DI water) were prepared. […] If the added active ingredient dissolved, further active ingredient was added, to supersaturation, followed by stirring for a further 72 hours. The resulting suspension was filtered through a 0.45 μm membrane filter and the dissolved fraction of active ingredient was determined by means of UV/Vis spectroscopy. The same method was also carried for the active ingredients alone, in order to determine the solubility of the pure active ingredient and to be able to determine the improvement through salt formation. For comparison, the solubility in 0.1 normal HCl as well was ascertained, representing the solubility of the hydrochloride salt of the corresponding base.

These results are taken from patent publication US20150038668A1, “Branched Polyesters Based On Citric Acid, Their Preparation And Use” (BASF SE, priority 2010, published 2015).

In brackets after ≈: the same amount, converted by molar mass.

As to `CN(C)C(=O)C(CCN1CCC(O)(c2ccc(Cl)cc2)CC1)(c1ccccc1)c1ccccc1` [Loperamide, loperamide], the thermodynamic solubility (commonly solubility found after equilibrating the solid with the medium) at 72 h by setting is: (simulated gastric fluid) 200 µg/mL (≈ 419 µM); (water) 70 µg/mL (≈ 147 µM).

Regarding `NC(N)=Nc1nc(CSCCC(N)=NS(N)(=O)=O)cs1` [Famotidine, famotidine], the solubility (thermodynamic) at 72 h is, setting by setting: (simulated gastric fluid) 32100 µg/mL (≈ 95100 µM); (water) 1000 µg/mL (≈ 2960 µM).
